What follows are compounds tested on VEGF induced increases in intracellular calcium levels in HUVEC (human umbilical vein endothelial cells) (assay: VEGF Stimulated Ca++ signal assay (FLIPR)). Conditions: 10 μM compound, 30 min pre-incubation, VEGF 5 ng/mL.
Type: cell-based
Description: VEGF Stimulated Ca^++ Signal in vitro
(§1) Automated FLIPR (Fluorometric Imaging Plate Reader) technology was used to screen for inhibitors of VEGF induced increases in intracellular calcium levels in fluorescent dye loaded endothelial cells. HUVEC (human umbilical vein endothelial cells) (Clonetics) were seeded in 96-well fibronectin coated black-walled plates overnight @ 37° C./5% CO2. Cells were loaded with calcium indicator Fluo-4 for 45 minutes at 37° C. Cells were washed 4 times (Original Cell Wash, Labsystems) to remove extracellular dye. Test compounds were reconstituted in 100% DMSO and added to the cells to give a final DMSO concentration of 0.1%. […] Changes in fluorescence at 516 nm were measured simultaneously in all 96 wells using a cooled CCD camera. Data were generated by determining max-min fluorescence levels for unstimulated, stimulated, and drug treated samples. IC50 values for test compounds were calculated from % inhibition of VEGF stimulated responses in the absence of inhibitor. Protocol for KDR Assay: The cytoplasmic domain of the human VEGF receptor (VEGFR-2) was expressed as a Histidine-tagged fusion protein following infection of insect cells using an engineered baculovirus. His-VEGFR-2 was purified to homogeneity, as determined by SDS-PAGE, using nickel resin chromatography. […]

| Compound | inhibition at 10 µM [%] |
| --- | --- |
| Cc1cc(C)c(Cc2cc(NC=C3C(=O)Nc4ccccc43)[nH]n2)c(C)c1 [Example 36] | 69.3 |

Same assay, conditions: VEGF 5 ng/mL, 0.01 to 10.0 μM

| Compound | IC50 [µM] |
| --- | --- |
| Cc1cc(C)c(Cc2cc(NC=C3C(=O)Nc4ccccc43)[nH]n2)c(C)c1 [Example 36] | 5.9 |

The compounds below were run on VEGF-induced EBD extravasation (assay: Miles Assay: VEGF-induced Dermal Extravasation in Guinea Pig). Conditions: oral administration, Table 3.
Type: in vivo
Description: as §1

| Compound | in-vivo activity (Miles Assay, in words) |
| --- | --- |
| Cc1cccc2c1C(=CNc1cc[nH]n1)C(=O)N2 [Example 6, 4-Methyl-3-[(1H-pyrazol-3-ylamino)-methylene]-1,3-dihydro-indol-2-one] | significant in-vivo activity |
| Cc1cc(NC=C2C(=O)Nc3ccc(F)cc32)n[nH]1 [Example 26, 5-Fluoro-3-[(5-methyl-1H-pyrazol-3-ylamino)-methylene]-1,3-dihydro-indol-2-one] | significant in-vivo activity |

Each compound was assayed against T1, cytoplasmic domain of the human VEGF receptor (VEGFR-2) (Homo sapiens, UniProt P35968) (assay: KDR Assay (kinase ELISA, poly-Glu-Tyr substrate)). Conditions: His-VEGFR-2, 3.6 μM ATP.
T1 construct: The cytoplasmic domain of the human VEGF receptor (VEGFR-2) was expressed as a Histidine-tagged fusion protein; His (Histidine tag); made in house; host or cells: insect cells infected with an engineered baculovirus
T1 sequence (P35968 786-1356 limits assumed): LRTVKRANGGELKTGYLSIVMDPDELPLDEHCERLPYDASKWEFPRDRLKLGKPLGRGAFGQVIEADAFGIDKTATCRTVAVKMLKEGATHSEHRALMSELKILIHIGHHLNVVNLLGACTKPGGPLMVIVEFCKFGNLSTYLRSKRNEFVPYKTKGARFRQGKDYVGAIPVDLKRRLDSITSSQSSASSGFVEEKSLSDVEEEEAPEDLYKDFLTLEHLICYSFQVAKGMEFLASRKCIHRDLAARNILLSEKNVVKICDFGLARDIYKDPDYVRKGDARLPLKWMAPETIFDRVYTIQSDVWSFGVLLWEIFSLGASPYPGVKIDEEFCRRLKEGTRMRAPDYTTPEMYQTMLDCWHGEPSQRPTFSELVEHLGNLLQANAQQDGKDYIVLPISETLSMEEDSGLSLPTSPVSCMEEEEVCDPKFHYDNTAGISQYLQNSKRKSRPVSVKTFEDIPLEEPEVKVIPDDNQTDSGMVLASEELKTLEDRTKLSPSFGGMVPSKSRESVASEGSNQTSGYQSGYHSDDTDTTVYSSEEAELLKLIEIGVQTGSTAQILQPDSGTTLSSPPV
Type: biochemical
Description: Automated FLIPR (Fluorometric Imaging Plate Reader) technology was used to screen for inhibitors of VEGF induced increases in intracellular calcium levels in fluorescent dye loaded endothelial cells. HUVEC (human umbilical vein endothelial cells) (Clonetics) were seeded in 96-well fibronectin coated black-walled plates overnight @ 37° C./5% CO2. Cells were loaded with calcium indicator Fluo-4 for 45 minutes at 37° C. Cells were washed 4 times (Original Cell Wash, Labsystems) to remove extracellular dye. Test compounds were reconstituted in 100% DMSO and added to the cells to give a final DMSO concentration of 0.1%. For screening, cells were pre-incubated with test agents for 30 minutes, at a single concentration (10 μM) or at concentrations ranging from 0.01 to 10.0 μM followed by VEGF stimulation (5 ng/mL). Changes in fluorescence at 516 nm were measured simultaneously in all 96 wells using a cooled CCD camera. Data were generated by determining max-min fluorescence levels for unstimulated, stimulated, and drug treated samples. IC50 values for test compounds were calculated from % inhibition of VEGF stimulated responses in the absence of inhibitor. Protocol for KDR Assay: The cytoplasmic domain of the human VEGF receptor (VEGFR-2) was expressed as a Histidine-tagged fusion protein following infection of insect cells using an engineered baculovirus. His-VEGFR-2 was purified to homogeneity, as determined by SDS-PAGE, using nickel resin chromatography. Kinase assays were performed in 96 well microtiter plates that were coated overnight with 30 μg of poly-Glu-Tyr (4:1) in 10 mM Phosphate Buffered Saline (PBS), pH 7.2-7.4. The plates were incubated with 1% BSA and then washed four times with PBS prior to starting the reaction. Reactions were carried out in 120 μL reaction volumes containing 3.6 μM ATP in kinase buffer (50 mM Hepes buffer pH 7.4, 20 mM MgCl2, 0.1 mM MnCl2 and 0.2 mM Na3VO4). Test compounds were reconstituted in 100% DMSO and added to the reaction to give a final DMSO concentration of 5%. Reactions were initiated by the addition 0.5 ng of purified protein. Following a ten minute incubation at 25° C., the reactions were washed four times with PBS containing 0.05% Tween-20. 100 μl of a monoclonal anti-phosphotyrosine antibody-peroxidase conjugate was diluted 1:10000 in PBS-Tween-20 and added to the wells for 30 minutes. Following four washes with PBS-Tween-20, 100 μl of 0-Phenylenediamine Dihydrochloride in Phosphate-citrate buffer, containing urea hydrogen peroxide, was added to the wells for 7 minutes as a colorimetric substrate for the peroxidase. The reaction was terminated by the addition of 100 μl of 2.5N H2SO4 to each well and read using a microplate ELISA reader set at 492 nm. IC50 values for compound inhibition were calculated directly from graphs of optical density (arbitrary units) versus compound concentration following subtraction of blank values. Miles Assay Description VEGF-induced Dermal Extravasation in Guinea Pig (Miles Assay). Male Hartley guinea pigs (300-600 g) were anesthetized with isofluorane, sheared, and given a single oral dose of drug or the respective vehicle. Ten minutes prior to the end of drug treatment, guinea pigs were anesthetized with isofluorane, and 0.5% Evans blue dye (EBD) in PBS (13-15 mg/kg dose of EBD) was injected intravenously. After 5 minutes, triplicate intradermal injections of 100 ng rhVEGF165 in 100 μl PBS and of 100 μl PBS alone were administered on the flank. After 20 minutes, each animal was euthanized with Pentosol, and the skin containing the intradermal injection sites was removed for image analysis.

| Compound | IC50 [µM] |
| --- | --- |
| Cc1cc(C)c2c(NC=C3C(=O)Nc4ccccc43)n[nH]c2n1 [Example 25, 3-[(4,6-Dimethyl-1H-pyrazolo[3,4-b]pyridin-3-ylamino)-methylene]-1,3-dihydro-indol-2-one] | ≥ 10 |
| O=C1Nc2ccccc2C1=CNc1cc(-c2cc(OCc3ccccc3)cc(OCc3ccccc3)c2)n[nH]1 [Example 31, 3-{[5-(3,5-Bis-benzyloxy-phenyl)-2H-pyrazol-3-ylamino]-methylene}-1,3-dihydro-indol-2-one] | ≥ 10 |
| Cc1ccc(-c2cc(NC=C3C(=O)Nc4ccccc43)[nH]n2)c(C)c1 [Example 34, 3-{[5-(2,4-Dimethyl-phenyl)-2H-pyrazol-3-ylamino]-methylene}-1,3-dihydro-indol-2-one] | ≥ 10 |
| Cc1cccc(Cc2cc(NC=C3C(=O)Nc4ccccc43)[nH]n2)c1 [Example 39, 3-{[5-(3-Methyl-benzyl)-2H-pyrazol-3-ylamino]-methylene}-1,3-dihydro-indol-2-one] | ≥ 10 |
| O=C1Nc2ccccc2C1=CNc1cc(Cc2ccccc2)n[nH]1 [Example 40, 3-[(5-Benzyl-2H-pyrazol-3-ylamino)-methylene]-1,3-dihydro-indol-2-one] | ≥ 10 |

The remaining lines, values ahead:

| IC50 [µM] | Compound |
| --- | --- |
| ≥ 10 | Cc1cccc2c1C(=CNc1n[nH]c(-c3ccccc3)c1Br)C(=O)N2 [Example 12, 3-[(4-Bromo-5-phenyl-1H-pyrazol-3-ylamino)-methylene]-4-methyl-1,3-dihydro-indol-2-one] |
| ≥ 10 | O=C1Nc2ccc(Cl)cc2C1=CNc1n[nH]c(-c2ccccc2)c1Br [Example 13, 3-[(4-Bromo-5-phenyl-1H-pyrazol-3-ylamino)-methylene]-5-chloro-1,3-dihydro-indol-2-one] |
| ≥ 10 | COC(=O)c1ccc(-c2cc(NC=C3C(=O)Nc4ccccc43)n[nH]2)cc1 [Example 24, 4-{5-[(2-Oxo-1,2-dihydro-indol-3-ylidenemethyl)-amino]-2H-pyrazol-3-yl}-benzoic acid methyl ester] |
| ≥ 10 | Cc1cc(C)c(Cc2cc(NC=C3C(=O)Nc4ccccc43)[nH]n2)c(C)c1 [Example 36] |
